The test system of series [1] is sera from SFV-infected B6 mice. It is filed as binding. The method, then:
To measure the antibody response of both WT and γδ KO mice against SFV and two of the peptides of the SFV envelope protein, E2, an indirect ELISA was performed. Sera were pooled from 4-6 SFV-infected WT, and 3 KO, mice on days 0, 7, 14, 21 and 35 pi. Briefly, Immunolon 2HB 96 well microtiter plates (VWR, Bridge Port, N.J.) were coated with 1 μg/well of each antigen in 100 μl/well carbonate buffer overnight at room temperature. After washing, the plates were blocked and serum samples were added. […] After washing, biotinylated goat anti-mouse Igs (BD Pharmingen, Torreyana, Calif.), Strepavidin conjugated to Horse Radish Peroxidase (Vector Laboratories, Burlingame, Calif.), and OPD substrate (Sigma, St. Louis, Mo.) were used, as previously described (4, 9). […] Values were considered to be positive when they were >0.3 OD units and exceeded the mean value plus three standard deviations for antibody response on day 0 pi of mice of the same strain. […]
In some instances day 0 OD values were high, thus making the differences appear small. Therefore, to account for such discrepancy, we also determined the ratio of the highest day (day 15 or 21) over day 0.

Series [2] concerns sera from SFV-infected WT and γδ KO mice. Nature of the series: ELISA of sera from SFV-infected WT and γδ KO mice against SFV, E2 peptides, PPD and rMOG. Format: binding.
Series [3] relates to B6 mice. The note with it: ref. (4); cited from earlier work.

Data on one substance can be found in patent publication US20090311246A1, “Method of Enhancing Remyelination in Demyelinating Diseases of the Central Nervous System” (priority 2008, published 2009).

Take “H-IQDTRNAVRACRIQYHHD-OH [E2 115-129, reference compound]”: the “Dh / D0 (Ratio)” value in series [1] (OD of highest day (day 15 or 21) over day 0, SFV-infected sera) came out at 5.28. Besides, in series [1] (OD of highest day minus day 0, SFV-infected sera), the “Dh−D0 (difference)” value came out at 0.458. In addition, in series [1] (SFV-infected mice sera, days 7-9 pi, day 0 OD subtracted), the “Net change in the levels of antibody (ΔOD), D7-9” value was 0.82 ± 0.40 ΔOD. Moreover, the “Net change in the levels of antibody (ΔOD), D14-16” value in series [1] (SFV-infected mice sera, days 14-16 pi, day 0 OD subtracted) is listed as 0.91 ± 0.14 ΔOD. The “Net change in the levels of antibody (ΔOD), D21-23” value in series [1] (SFV-infected mice sera, days 21-23 pi, day 0 OD subtracted) is reported as 0.95 ± 0.22 ΔOD. Also, the “Net change in the levels of antibody (ΔOD), D31-35” value in series [1] (SFV-infected mice sera, days 31-35 pi, day 0 OD subtracted) was 0.85 ± 0.07 ΔOD. The “Reactivity of sera from SFV-infected B6 mice with the antigen in ELISA” value in series [1] (vs day 0) is “reacted”. The “Net change in the level of antibody, D0 WT” value in series [2] (WT mice, day 0) is 0 nano gr. Moreover, the “Net change in the level of antibody, D7 WT” value in series [2] (WT mice, day 7 pi, ± SD) is 69 ± 29 nano gr. Besides, the “Net change in the level of antibody, D14 WT” value in series [2] (WT mice, day 14 pi, ± SD) came to 83 ± 16 nano gr. In addition, the “Net change in the level of antibody, D21 WT” value in series [2] (WT mice, day 21 pi, ± SD) was 90 ± 20 nano gr. In addition, the “Net change in the level of antibody, D35 WT” value in series [2] (WT mice, day 35 pi, ± SD) worked out at 73 ± 14 nano gr. The “Net change in the level of antibody, D0 KO” value in series [2] (γδ KO mice, day 0) is reported as 0 nano gr. In addition, the “Net change in the level of antibody, D7 KO” value in series [2] (γδ KO mice, day 7 pi, ± SD) turned out to be 65 ± 35 nano gr. In series [2] (γδ KO mice, day 14 pi, ± SD), the “Net change in the level of antibody, D14 KO” value worked out at 34 ± 24 nano gr. The “Net change in the level of antibody, D21 KO” value in series [2] (γδ KO mice, day 21 pi, ± SD) is given as 55 ± 20 nano gr. Further, the “Net change in the level of antibody, D35 KO” value in series [2] (γδ KO mice, day 35 pi, ± SD) worked out at 29 ± 22 nano gr. Moreover, the “Reactivity of sera from SFV-infected γδ KO mice” value in series [2] (γδ KO, sera 1:80) is reported as “lower, but not significantly different than WT”. Also, in series [3], the “Histopathology after inoculation with the peptide (literature)” value is “induced vaccuolation in myelin”.
